Where a SMILES comes first, the peptide text is derived from it. Where no end group is shown, it is not given here.
Key:
[1] = biological target: T1, LCAT (purified from human plasma) (Homo sapiens, UniProt P04180); assay: LCAT activation assay; type: biochemical; settings: for LCAT activation as compared with native ApoA-I: native ApoA-I = 100% activation
T1 construct: from tissue; host or cells: human plasma
T1 sequence (P04180 25-440): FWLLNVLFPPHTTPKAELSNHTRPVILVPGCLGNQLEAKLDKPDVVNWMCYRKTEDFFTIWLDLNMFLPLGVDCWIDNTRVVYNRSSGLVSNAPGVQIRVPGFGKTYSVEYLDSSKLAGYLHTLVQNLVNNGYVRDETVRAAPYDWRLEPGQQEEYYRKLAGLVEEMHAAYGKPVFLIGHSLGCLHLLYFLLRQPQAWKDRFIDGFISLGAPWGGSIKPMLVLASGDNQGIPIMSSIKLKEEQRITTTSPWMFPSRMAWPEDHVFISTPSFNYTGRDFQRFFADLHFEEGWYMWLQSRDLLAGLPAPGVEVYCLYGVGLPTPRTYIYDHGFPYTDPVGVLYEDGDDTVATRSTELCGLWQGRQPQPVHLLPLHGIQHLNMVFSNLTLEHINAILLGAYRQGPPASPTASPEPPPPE
Method: Examples of peptides which may be encoded by the nucleotides of the present invention are listed in Table VIII which also includes peptides which are chemically synthesized. […] All of the peptides listed were analyzed in vitro for their ability to activate LCAT. In the LCAT assay, substrate vesicles (small unilamellar vesicles or “SUVs”) composed of egg phophatidylcholine or 1-Palmitoyl-2-oleyl-phosphatidylcholine (POPC) and radiolabelled cholesterol are preincubated with equivalent masses either of peptide or ApoA-I (isolated from human plasma). The reaction is initiated by addition of LCAT (purified from human plasma). Native ApoA-I, which was used as positive control, represents 100% activation activity. “Specific activity” (i.e., units of activity (LCAT activation)/unit of mass) of the peptides can be calculated as the concentration of peptide that achieves maximum LCAT activation. For example, a series of concentrations of the peptide (e.g., a limiting dilution) can be assayed to determine the “specific activity” for the peptide—the concentration which achieves maximal LCAT activation (i.e., percentage conversion of cholesterol to cholesterol ester) at a specific timepoint in the assay (e.g., 1 hr.). When plotting percentage conversion of cholesterol at, e.g., 1 hr., against the concentration of peptide used, the “specific activity” can be identified as the concentration of peptide that achieves a plateau on the plottal curve.
The vesicles used in the LCAT assay are SUVs composed of egg phosphatidylcholine (EPC) or 1-palmitoyl-2-oleyl-phosphatidylcholine (POPC) and cholesterol with a molar ratio of 20:1. To prepare a vesicle stock solution sufficient for 40 assays, 7.7 mg EPC (or 7.6 mg POPC; 10 μmol), 78 μg (0.2 μmol) 4-^14C-cholesterol, 116 μg cholesterol (0.3 μmol) are dissolved in 5 ml xylene and lyophilized. Thereafter 4 ml of assay buffer is added to the dry powder and sonicated under nitrogen atmosphere at 4° C. Sonication conditions: Branson 250 sonicator, 10 mm tip, 6.5 minutes; Assay buffer: 10 mM Tris, 0.14M NaCl, 1 mM EDTA, pH 7.4). […]

[2] = HDL cholesterol in rabbits after injection of phospholipid/peptide complex; type: in vivo, Male New Zealand White rabbits; settings: for Increase in HDL Cholesterol (%): 8 mg/kg i.v. as peptide/DPPC complexes
Method: Small discoidal particles consisting of phospholipid (DPPC) and peptide 146 (SEQ ID NO:146) were prepared following the cholate dialysis method. The phospholipid was dissolved in chloroform and dried under a stream of nitrogen. The peptide was dissolved in buffer (saline) at a concentration of 1-2 mg/ml. The lipid film was redissolved in buffer containing cholate (43° C.) and the peptide solution was added at a 3-1 phospholipid/peptide ratio. The mixture was incubated overnight at 43° C. and then dialyzed at 43° C. (24 hr.), room temperature (24 hr.) and 4° C. (24 hr.), with three changes of buffer (large volumes) at temperature point. The complexes were filter sterilized (0.22μ) for injection and storage at 4° C. The particles were separated on a gel filtration column (Superose 6 HR). The position of the peak containing the particles was identified by measuring the phospholipid concentration in each fraction. From the elution volume, the Stokes radius can was determined. The concentration of peptide in the complex was determined by determining the phenylalanine content (by HPLC) following a 16 hr. acid hydrolysis. Male New Zealand White rabbits (2.5-3 kg) were injected intravenously with a dose of phospholipid/peptide complex (8 mg/kg bodyweight peptide 146 (SEQ ID NO:146) or 10 mg/kg bodyweight ApoA-I, expressed as peptide or protein content) in a single bolus injection not exceeding 10-15 ml. The animals were slightly sedated before the manipulations. Blood samples (collected on EDTA) were taken before and 5, 15, 30, 60, 240 and 1440 minutes after injection. The hematocrit (Hct) was determined for each sample. Samples were aliquoted and stored at −20° C. before analysis. Plasma Lipids. The total plasma cholesterol, plasma triglycerides and plasma phospholipids were determined enzymatically using commercially available assays according to the manufacturer's protocols (Boehringer Mannheim, Mannheim, Germany and Biomérieux, 69280, Marcy-l'étoile, France). Lipoprotein Profiles. The plasma lipoprotein profiles of the fractions obtained after the separation of the plasma into its lipoprotein fractions were determined by spinning in a sucrose density gradient. The fractions were collected and in each individual fraction the phospholipid and cholesterol content was measured enzymatically.

[3] = system: EPC/Chol (20:1) small unilamellar vesicles; assay: Lipid binding by fluorescence spectroscopy
Method: The lipid binding properties of the peptides described in Section 6, supra, were tested by fluorescence measurements with labeled peptides, in the present case Tryptophane (Trp or W) or Naphtylalanine (Nal). The fluorescence spectra were recorded on a Fluoromax from Spex (Jobin-Yvon) equipped with a Xenon lamp of 150W, two monochromators (excitation and emission), a photomultiplier R-928 for detection sensitive in the red up to 850 nm and a thermoelectric magnetic stirred cell holder. Quartz Suprasil cuvettes were used for measurements in the micromolar concentration range. A device of variable slits (from 0.4 to 5 nm) allows modulation of the incident and emitted intensities according to the concentration of peptide used. The reported values are in general the average of between 2 to 4 spectra. The peptide concentration is determined by absorption spectrometry on a Philips PU 8800 using the absorption band of the Trp (∈280 nm=5,550 M^−1 cm^−1 in Tris buffer) or the Nal (∈224 nm=92,770 M^−1 cm^−1 in methanol).
Fluorescence spectra of the peptides were recorded between 290 nm and 450 nm in Tris-HCl buffer (20 mM, pH=7.5), in the presence and absence of lipidic vesicles. The small unilamellar vesicles were formed after rehydration in buffer of the lyophilized phospholipids, dispersion and tip sonification under a N2 stream. The lipids used were either Egg PC/Chol. (20:1) or POPC/Chol. (20:1). The spectra were recorded at a peptide concentration of 2 μM and at a temperature of 37° C. The fluorescence reference standard in the case of Trp was N-acetyltryptophanylamide (NATA).
Lipid binding studies were done through progressive lipidic vesicle addition to the peptide in solution at 2 μM (slits:5 nm in excitation and 1.5 nm in emission). Dilution effects were taken into account for the fluorescence intensity determination. The lipid concentrations were varied from 10 to 600 μM and the molar ratio of lipid to peptide (Ri) was varied from 5 to 300. The wavelength of excitation was set at 280 nm for both Trp and Nal.
The data were directly recorded and treated by an IBM-PC linked to the spectrofluorimeter through the DM3000F software from Spex. The spectra were corrected by substraction of the solvent contribution and by application of a coefficient given by the constructor taking into account the variation of the photomultiplier response versus the wavelength.
The fluorescence spectra of the peptides were characterized by the wavelength at their maximum of fluorescence emission and by their quantum yield compared to NATA in the case of peptides labeled with a tryptophane. The process of binding to lipids was analyzed by calculating the shift of the wavelength at the maximum of fluorescence emission, (λmax), and the variation of the relative fluorescence intensity of emission versus the lipid concentration. The relative fluorescence intensity is defined as the following ratio: (I-I0)λmax/I0λmax. I and I0 are both measured at the (λmax) corresponding to the initial free state of the peptide, i.e., without lipids. I is the intensity at a defined lipid to peptide ratio and I0 is the same parameter measured in absence of lipids. The absence of these variations is relevant of the absence of interactions of the peptides with the lipids.

Compound: CC(=O)N1CCC[C@H]1C(=O)N[C@H](C(=O)N[C@@H](CC(C)C)C(=O)N[C@@H](CC(=O)O)C(=O)N[C@@H](CCC(=O)O)C(=O)N[C@@H](Cc1ccccc1)C(=O)N[C@@H](CCCN=C(N)N)C(=O)N[C@@H](CCC(=O)O)C(=O)N[C@@H](CCCCN)C(=O)N[C@@H](CC(C)C)C(=O)N[C@@H](CC(N)=O)C(=O)N[C@@H](CCC(=O)O)C(=O)N[C@@H](CCC(=O)O)C(=O)N[C@@H](CC(C)C)C(=O)N[C@@H](CCC(=O)O)C(=O)N[C@@H](C)C(=O)N[C@@H](CC(C)C)C(=O)N[C@@H](CCCCN)C(=O)N[C@@H](CCC(N)=O)C(=O)N[C@@H](CCCCN)C(=O)N[C@@H](CC(C)C)C(=O)N[C@@H](CCCCN)C(N)=O)C(C)C [consensus 22-mer] (Ac-PVLDEFREKLNEELEALKQKLK-NH2)
- LCAT activation as compared with native ApoA-I [1]: 10%

Compound: peptide 18AM4: peptide ApoA-I mimic described in the literature (Corinjn et al., 1993) (EWLEAFYKKVLEKLKELF)
- LCAT activation as compared with native ApoA-I [1]: less than 4%

Compound: PVLELFERLLEDLQKKLK [peptide 229]
- ACTIVITY (%) LCAT ([1]; LCAT activation as compared with native human ApoA-I): 0%

Compound: PVLELFENLLERLLDALQKKLK [peptide 146]
- Increase in HDL Cholesterol (%) ([2]; 5 min): 31.3%
- Increase in HDL Cholesterol (%) ([2]; 15 min): 60.4%
- Increase in HDL Cholesterol (%) ([2]; 60 min): 42.9%
- Increase in HDL Cholesterol (%) ([2]; 240 min, 8 mg/kg): 90%
- Increase in HDL Cholesterol (%) ([2]; 240 min, listed as Peptide 146, 8 mg/kg): 90.2%
- Increase in HDL Cholesterol (%) ([2]; 1440 min): 71.2%
- duration of the increase in cholesterol of the HDL cholesterol fractions ([2]; 8 mg/kg, apparent at 5 min following injection): approximately 24 hr

Compound: CC(=O)N[C@@H](Cc1c[nH]c2ccccc12)C(N)=O [NATA, N-acetyltryptophanylamide, reference compound]
- λmax ([3]; Ri 0, in buffer, 2 μM): 350 nm

Compound: PVLDLFRELWEELKQKLK* (not fully specified (N-terminus, C-terminus); printed as PVLDLFRELWEELKQKLK*; also: terminal modification marked *, not defined here) [peptide 199]
- lipid to peptide molar ratio at which burying of the tryptophane residue is maximal ([3]; EPC/Chol (20:1) SUVs): about 100
- λmax ([3]; Ri 0, in buffer, 2 μM): 348 nm
- λmax ([3]; Ri 5): 344 nm
- λmax ([3]; Ri 10): 339 nm
- λmax ([3]; Ri 30): 328 nm
- λmax ([3]; Ri 100): 326 nm
- λmax ([3]; Ri 200): 325 nm
- lipid binding ([3]; small unilamellar vesicles): binds very effectively

Reference: patent publication US6518412B1, “Gene therapy approaches to supply apolipoprotein A-I agonists and their use to treat dyslipidemic disorders” (priority 1997, dated 2003)
